These results are taken from patent US20080026417A1, “ASSAYS FOR TRICHOMONAL AND OTHER HYDROLASES” (priority 2002, published 2008).

Where “and” joins values, the source holds several entries; their conditions need not be identical. Equal values may be shown once.

The test system of assay [1] is trichomonal hydrolases. Kind of assay: Experiment 17: effect of amount of VLR-MNA on color produced by trichomonal hydrolases on swabs. The assay is classed as biochemical, Trichomonas vaginalis. Conditions: 0-9 scale. The protocol:
Solution A, containing 10% v/v trichomonal hydrolases and 2 mM L-cysteine, was prepared by mixing 20 μL of trichomonal hydrolases with 4 μl of 100 mM L-cysteine and 176 μL of water, and Solution B, containing 20% v/v trichomonal hydrolases, 5% v/v normal vaginal fluid supernatant and 2 mM L-cysteine, was prepared by mixing 40 μL of trichomonal hydrolases with 10 μL of normal vaginal fluid supernatant, 4 μL of 100 mM L-cysteine and […]. Several 35 μL drops each of Solution A, Solution B, and threonine buffer were individually pipetted onto discrete, separated areas on a sheet of Mylar. Individual cotton swabs were rubbed on a drop of either Solution A or Solution B, then on one, two or three dots of substrate, and then on a drop of buffer. After ten minutes, each swab was rubbed on an indicator film. The intensity of pink color that developed on each swab after thirty seconds was visually scored in 0.5 unit increments using the 0-9 color scale presented in Table 11.1.

In assay [2] the test system is trichomonal hydrolases. Kind of assay: Experiment 13: hydrolysis of peptide substrates by trichomonal hydrolases at low pH, no vaginal fluid. Conditions: without vaginal fluid; threonine buffer pH 2.4; 2 mM substrate solution; 10 min 25° C.; Fast Garnet. The class given is biochemical, Trichomonas vaginalis. Set-up: key: −: No red color produced; +: Clearly visible red color produced; ++: Moderately intense red color produced; +++: Very intense red color produced. The gist of the method: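 Peptide substrates incubated in duplicate for 10 min at 25° C. with trichomonal hydrolase diluted 1:9 in 2 mM L-cysteine; negative controls received L-cysteine alone. SDS/acetate and Fast Garnet added, and color visually scored after 5 min on a color scale.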

Assay [3] concerns trichomonal hydrolases. The experiment in a line: Experiment 13: hydrolysis of peptide substrates by trichomonal hydrolases at low pH in vaginal fluid supernatant. The assay is classed as biochemical, Trichomonas vaginalis. The settings on record: Fast Garnet. More on the design: key: −: No red color produced; +: Clearly visible red color produced; ++: Moderately intense red color produced; +++: Very intense red color produced. As to the method:
Forty μL of each substrate was pipetted into duplicate wells of a microtiter plate. The plate was covered with tape, placed into a 25° C. incubator, and allowed to warm. A diluted enzyme mixture was prepared by mixing one part (v/v) freshly-thawed trichomonal hydrolase solution to nine parts 2 mM L-cysteine solution. Forty μL of this mixture was added to one well of each pair of duplicate wells. For negative controls, 40 μL of 2 mM L-cysteine was added to the second well in each pair of duplicate wells. The plate was returned to the incubator and incubated for ten minutes. Forty μL of SDS/acetate solution was added to each well, followed by 40 μL of Fast Garnet solution. The intensity of color that developed in each well after five minutes was visually scored using the color scale presented in Table 13.1.
Of the nine substrates hydrolyzed by trichomonal hydrolases to produce an intense pink color (scoring ++ or +++) in the absence of vaginal fluid supernatant, only four produced intense pink color when vaginal fluid supernatant was present.

For assay [4], the system named is trichomonal hydrolases. Kind of assay: Experiment 14: substrate comparison on swabs with vaginal fluid plus trichomonal hydrolases at low pH. The assay is classed as biochemical, Trichomonas vaginalis. The settings on record: threonine pH 2.4, 0-9 scale. As to the method:
For each pair of vaginal fluid specimens from a donor, one swab was rubbed on one substrate film and the other swab was rubbed on a different substrate film; two substrates were compared at a time. The concentrations of the substrates varied from 150 mM to 320 mM in the solutions used to make the substrate films, but each specific comparison matched equimolar concentrations of substrates (as specified in Tables 14.1, 14.2, and 14.3 below). In the swabs, the substrate was diluted by vaginal fluid and buffer, and the final concentration of substrate in the swab tip was estimated to be 1/60 of the concentration of substrate in the solutions used to make the films. Immediately after each swab was rubbed on a substrate film, a 35-μL drop of threonine buffer was applied to the plastic where the substrate film had been, and the swab was rubbed on the same spot again until the buffer was absorbed into the swab. The swabs were left lying on the plastic for ten minutes, then each swab was rubbed on a Fast Red or Fast Garnet film. For the comparisons between ZLR and ZVR, and between VLR-MNA and ZRRR-MNA, films made with 10 mM Fast Garnet were used; for the comparison between ZVR and VLR-MNA, films made with 70 mM Fast Red were used. The intensity of pink color that developed on each swab after two minutes was visually scored using the 0-9 color scale presented in Table 11.1 above; fractional scores such as 1.3 were used when color intensities between swabs differed only slightly. In this part of the experiment, 20 μL of trichomonal hydrolases was applied to the tip of each swab containing vaginal fluid just prior to running the assay. Otherwise, the procedure was exactly the same as for the swabs containing only vaginal fluid.

Assay [5] concerns endogenous hydrolases present in normal vaginal fluid. Kind of assay: Experiment 14: substrate comparison on swabs with normal vaginal fluid at low pH. The class given is biochemical, human. More on the design: key: 0: Colorless or yellow - no pink color; trace: Peach or orange; 1: Faint pink; 2-8: Intermediate intensities of pink; 8: Very intense pink/red. The settings on record: Normal (n = 3); 150 mM substrate film solution; threonine pH 2.4; Fast Red; 0-9 scale. The protocol: Mixtures were made of the 400 mM substrate stock solutions, 25% hydroxy-propylcellulose solution, 200 mM L-cysteine, along with additional ethanol to a final concentration of 150-320 mM substrate, 20 mM L-cysteine, and 2-5% hydroxypropyl-cellulose. Substrate films were made by pipetting 1 μL of a mixture over a circular area approximately […] in diameter on a sheet of Mylar, and drying under a stream of dry nitrogen. The dried films were stored in a container with desiccant until used.
For each pair of vaginal fluid specimens from a donor, one swab was rubbed on one substrate film and the other swab was rubbed on a different substrate film; two substrates were compared at a time. The concentrations of the substrates varied from 150 mM to 320 mM in the solutions used to make the substrate films, but each specific comparison matched equimolar concentrations of substrates (as specified in Tables 14.1, 14.2, and 14.3 below). […] The intensity of pink color that developed on each swab after two minutes was visually scored using the 0-9 color scale presented in Table 11.1 above; fractional scores such as 1.3 were used when color intensities between swabs differed only slightly.

Assay [6] relates to trichomonal hydrolases. Kind of assay: Experiment 11: hydrolysis of ZRRR-MNA by trichomonal hydrolases at pH 1.9-3.4, read on swab. The class given is biochemical, Trichomonas vaginalis. Conditions: Fast Red RL, 0-9 scale. The protocol:
The 200 mM ZRRR-MNA solution was mixed with 25% hydroxypropylcellulose solution and additional ethanol to a final concentration of 80 mM ZRRR-MNA and 5% hydroxypropyl-cellulose. Substrate films were made by pipetting 1 μL of a mixture over a circular area approximately ¼-inch in diameter on a sheet of Mylar, and drying under a stream of dry nitrogen. An 80-μL aliquot of a malic acid buffer solution, at each pH listed above, was pipetted into each of eight separate round-bottom wells on a microtiter plate. Eighty μL of 10% trichomonal hydrolase solution was added to each well and mixed thoroughly. Half of the volume in each well (80 μL) was then transferred to a second set of eight wells, into which the swabs were then inserted. After the 80 μL of liquid was absorbed from each well into the respective swab, each swab was rubbed on a substrate film. Ten minutes after the swabs were exposed to substrate, each swab was rubbed on an indicator (Fast Red) film. The intensity of pink color that developed on each swab after one minute was visually scored in 0.5 unit increments using the 0-9 color scale presented in Table 11.1 below. To determine the final pH of the eight mixtures of trichomonal hydrolases and buffer, the pH of the liquid remaining in the first set of eight wells was measured using a pH meter. The experiment was repeated omitting the lowest pH and highest pH wells.

Setting [7] is: Hydrolases added (n = 2), 150 mM substrate film solution, Fast Red.
Setting [8] is: Hydrolases added (n = 5), 200 mM substrate film solution, Fast Garnet.

In the case of `COc1cc(NC(=O)C(CCCN=C(N)N)NC(=O)C(CC(C)C)NC(=O)C(N)C(C)C)cc2ccccc12` [VLR-MNA, D-Val-Leu-Arg-MNA], the Color Score in the assay with trichomonal hydrolases [1] (Solution A (10% trichomonal hydrolases, no vaginal fluid), One dot of Substrate) turned out to be 5.5; in the assay on trichomonal hydrolases [1] (Solution A, Three dots of Substrate), 9; in the assay with trichomonal hydrolases [1] (Solution A, Two dots of Substrate), 7; with trichomonal hydrolases [1] (Solution B (20% trichomonal hydrolases, 5% normal vaginal fluid supernatant), One dot of Substrate), 2.5; with trichomonal hydrolases [1] (Solution B, Three dots of Substrate), 5.5; with trichomonal hydrolases [1] (Solution B, Two dots of Substrate), 4. Moreover, the “Color Score” value in the assay on trichomonal hydrolases [2] is recorded as “+++”; with trichomonal hydrolases [3], “+++”; in the assay with trichomonal hydrolases [4] (setting [7]), 2 to 2.5; with trichomonal hydrolases [4] (setting [8]) it was 1 to 4; in assay [5], 0.
For the compound `CC(=O)O.COc1cc(NC(=O)[C@H](CCCN=C(N)N)NC(=O)[C@H](CCCN=C(N)N)NC(=O)[C@H](CCCN=C(N)N)NC(=O)OCc2ccccc2)cc2ccccc12` [ZRRR-MNA, CBZ-Arg-Arg-Arg-MNA], the “Color Scores” value is 2 with trichomonal hydrolases [6] (malic acid pH 1.3 / final pH in wells 1.9); 4.5 in the assay on trichomonal hydrolases [6] (malic acid pH 1.6 / final pH 2.1, 1st experiment and duplicate); 5 in the assay on trichomonal hydrolases [6] (malic acid pH 1.9 / final pH 2.3, 1st experiment and duplicate); 5.5 and 6 in the assay with trichomonal hydrolases [6] (malic acid pH 2.2 / final pH 2.4, 1st experiment and duplicate); 5.5 and 5 in the assay on trichomonal hydrolases [6] (malic acid pH 2.5 / final pH 2.6, 1st experiment and duplicate); 5 and 3.5 in the assay on trichomonal hydrolases [6] (malic acid pH 2.8 / final pH 2.9, 1st experiment and duplicate). For the same compound, the “Color Scores” value in the assay on trichomonal hydrolases [6] (malic acid pH 3.1 / final pH 3.2, 1st experiment and duplicate) was 4.5 and 3; with trichomonal hydrolases [6] (malic acid pH 3.4 / final pH 3.4) it was 3. Moreover, the “Color Score” value with trichomonal hydrolases [2] is given as “+++”; in the assay with trichomonal hydrolases [3], “++”; in the assay with trichomonal hydrolases [4] (setting [8]), 1 to 4.
Take `COc1cc(NC(=O)[C@H](CCCNC(=N)N)NC(=O)[C@@H](NC(=O)OCc2ccccc2)C(C)C)cc2ccccc12` [ZVR, CBZ-Val-Arg-MNA]: the “Color Score” value in the assay on trichomonal hydrolases [2] is on record as “+++”; with trichomonal hydrolases [3] it was “++”; with trichomonal hydrolases [4] (setting [7]), 4.5 to 5; in the assay with trichomonal hydrolases [4] (Hydrolases added (n = 4), 320 mM substrate film solution, Fast Garnet) it was 1 to 5; in assay [5], 2.5 to 3.
